Measured values from patent EP0571928A1, “Acyclic Tocotrienol analogs in the treatment of hypercholesterolemia and hyperlipidemia” (Bristol-Myers Squibb Company, priority 1992, dated 1993).

Assays:
[1] = tested on: cholesterol biosynthesis in HepG2 cells; assay: HepG2 cell culture model - 14C-acetate incorporation assay (cholesterol synthesis); type: cell-based; settings: 3-4 hours incubation, 2-14C-acetate incorporation into digitonin-precipitable sterols, vs. vehicle controls; for inhibition at 10 µM: Homo sapiens, read-out: Sterol Biosynthesis % Inhibition 10µM
Procedure: HepG2 Cell Culture Model - 14C-Acetate Incorporation Assay
After 16 hours in LDS containing media, test compounds were added in dimethylsulfoxide vehicle (0.5% v/v final conc.) for an incubation period of 3-4 hours. Cholesterol synthesis was then directly determined by 2-14C-acetate (1.8 mCi/mmol, 0.5 µCi/ml) incorporation for 30 to 60 minutes (previously shown to be time-linear) into total digitonin-precipitable sterols. […] Percent inhibition was calculated from the average of duplicates vs. triplicate vehicle controls conducted simultaneously.

[2] = tested on: HMG-CoA reductase; assay: HepG2 cell culture model - HMG-CoA reductase suppression assay; type: cell-based; settings: HepG2 cells, 4 hours of incubation at 37°, decrease in specific activity vs. vehicle controls
Procedure: HepG2 Cell Culture Model - HMG-CoA Reductase Suppression Assay
HMG-CoA reductase suppression in HepG2 cells was conducted by growing cells in RPMT-1640 plus 10% FBS on 100 mm plates, and when cells reached approximately 75% confluency, inducing with LDS (as described above) for 16 hours prior to assays. Compounds were added using dimethylsulfoxide vehicle (0.5% v/v, final) and after 4 hours of incubation at 37°, cells were harvested by scraping. Cell pellets were rinsed and lysed by sonication in 1.7 ml cold 50 mM imidazole-HCl, pH 7.2, 50 mM NaCl, 10 mM EDTA, 10 mM EGTA, 5mM DTT, and 40 µM leupeptin). Lysates were centrifuged at 150 x g and the supernatant was centrifuged at 100,000 x g in a Beckman airfuge to isolate the post-nuclear total membrane fraction. The membranes were resuspended in 50 mM imidazole-HCl, pH 7.2, 250 mM NaCl, 5 mM DTT, and 20 µM leupeptin and used for the assay of HMG-CoA reductase activity by the radiochemical procedure as described previously by Parker et al., J. Biol. Chem., 264: 4877-4887, (1989). Values were normalized for protein content by the Lowry method as cited previously (ibid). HMG-CoA reductase percent suppression was calculated as the decrease in specific activity of HMG-CoA reductase for treated cells vs. controls receiving vehicle. Averages of duplicate cell determinations assayed in duplicate were taken.

[3] = tested on: HMGR; assay: In vivo evaluation in normocholesterolemic chickens - specific activity of HMGR; settings: 6-week old male chickens, 50 ppm in diet for four weeks
Procedure: (§1) In Vivo Biological Evaluation in Normocholesterolemic Chickens
(§2) Newborn male chicks (10 for each group) were raised on a standard corn-soybean based control diet for two weeks and then switched to either control or experimental diets for four weeks. Drug treatment consisted of the addition of test compounds to the corn-soybean-based diet at a concentration of 50 ppm. At the end of the feeding period, all the birds were fasted (36 hours) and refed (48 hours) to induce cholesterolgenic enzymes prior to sacrifice. The specific activity of HMGR, total serum cholesterol levels, LDL cholesterol and HDL cholesterol pools were determined (Table 6).

[4] = tested on: Normocholesterolemic Chickens; assay: In vivo evaluation in normocholesterolemic chickens - serum cholesterol pools; settings: 6-week old male chickens, 50 ppm in diet for four weeks; for Total Cholesterol: serum
Procedure: as §1, §2

Row | Molecule | Sterol Biosynthesis % Inhibition 10µM [1] | HMG-CoA Reductase Suppression % 10µM [2] | inhibition at 10 µM [1] | HMGR [3] | HDL Cholesterol [4] | LDL Cholesterol [4] | Total Cholesterol [4]
1 | 4-[(5,9,13-Trimethyl-4(E), 8(E),12-tetradecatrienyl)oxy]benzenemethanol [Example 21] | 64% | 9% |  |  |  |  | 
2 | CC(C)=CCC/C(C)=C/CC/C(C)=C/CCCOc1ccc(O)cc1 [Example 8, 4-[(5,9,13-Trimethyl-4(E), 8(E),12-tetradecatrienyl)oxy]phenol] |  | 29% | 71% |  |  |  | 
3 | CC(C)=CCCC(C)=CCCC(C)=CCCCOc1c(C)cc(O)cc1C [Example 13, 3,5-Dimethyl-4-[(5,9,13-Trimethyl-4,8, 12-tetradecatrienyl)oxy]phenol] |  | 45% | 70% |  |  |  | 
4 | CC(C)=CCC/C(C)=C/CC/C(C)=C/CCCOc1ccc(O)c(C)c1C [Example 11, 2,3-Dimethyl-4-[(5,9,13-Trimethyl-4(E), 8(E), 12-tetradecatrienyl)oxy]phenol] |  | 53% | 64% |  |  |  | 
5 | CC(C)=CCC/C(C)=C/CC/C(C)=C/CCOc1ccc(O)c(C)c1C [Example 10, 2,3-Dimethyl-4-[(4,8,12-Trimethyl-3(E),7(E), 11-tridecatrienyl)oxy]phenol] |  | 38% | 58% |  |  |  | 
6 | CC(C)=CCC/C(C)=C/CC/C(C)=C/CCCSc1ccc(O)cc1 [Example 30, 4-[(5,9,13-Trimethyl-4(E), 8(E),12-tetradecatrienyl)thio]phenol] |  | 29% | 68% |  |  |  | 
7 | CC(C)=CCC/C(C)=C/CC/C(C)=C/CCCOc1ccc(NS(C)(=O)=O)cc1 [Example 25, N-[4-[(5,9,13-Trimethyl-4(E), 8(E),12-tetradecatrienyl)oxy]phenyl]methanesulfonamide] |  | 9% | 77% | 86 % of Control | 91 % of Control | 45 % of Control | 72 % of Control
8 | CC(C)=CCC/C(C)=C/CC/C(C)=C/CCCOc1c(C)cc(OC(N)=O)cc1C [Example 14, 3,5-Dimethyl-4-[(5,9,13-Trimethyl-4(E), 8(E), 12-tetradecatrienyl)oxy]phenyl carbamate] |  | 21% | 65% |  |  |  | 
9 | γ-tocotrienol [reference compound] | 69% | 63% |  | 82 % of Control | 91 % of Control | 44 % of Control | 75 % of Control
10 | CC(C)=CCC/C(C)=C/CC/C(C)=C/CCCOc1c(C)cc(O)cc1C [Example 12, 3,5-Dimethyl-4-[(5,9,13-Trimethyl-4(E), 8(E), 12-tetradecatrienyl)oxy] phenol] |  | 35% | 70% |  | 70 % of Control | 50 % of Control | 67 % of Control
